Legend:
Assay in all cases: Post-emergence efficacy, glasshouse
Format in all cases: in vivo
[1] = system: Amaranthus palmeri (AMAPA); settings: Amaranthus palmeri, post-emergence, 312 h, evaluated after 13 days, 100=total damage to plant, 0=no damage to plant, read-out: Control of weed species after post-emergence application, AMAPA; for pest or weed control at 500 g/ha: Application Rate 500 g/Ha; for pest or weed control at 1000 g/ha: Application Rate 1000 g/Ha
Procedure, shortened: (§1)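 Plants grown 14 days in standard soil in pots in the glasshouse (24/16° C. day/night, 14 h light, 65% humidity) were sprayed with test compound diluted in 0.25% or 1% Empicol ESC70 plus 1% ammonium sulphate in water. Damage was scored 13 days later (0 = none, 100 = total).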

[2] = system: Chenopodium album (CHEAL); settings: Chenopodium album, post-emergence, 312 h, evaluated after 13 days, 100=total damage to plant, 0=no damage to plant, read-out: Control of weed species after post-emergence application, CHEAL; for pest or weed control at 500 g/ha: Application Rate 500 g/Ha; for pest or weed control at 1000 g/ha: Application Rate 1000 g/Ha
Procedure, shortened: as §1

[3] = system: Digitaria sanguinalis (DIGSA); settings: Digitaria sanguinalis, post-emergence, 312 h, evaluated after 13 days, 100=total damage to plant, 0=no damage to plant, read-out: Control of weed species after post-emergence application, DIGSA; for pest or weed control at 500 g/ha: Application Rate 500 g/Ha; for pest or weed control at 1000 g/ha: Application Rate 1000 g/Ha
Procedure, shortened: as §1

[4] = system: Echinochloa crus-galli (ECHCG); settings: Echinochloa crus-galli, post-emergence, 312 h, evaluated after 13 days, 100=total damage to plant, 0=no damage to plant, read-out: Control of weed species after post-emergence application, ECHCG; for pest or weed control at 500 g/ha: Application Rate 500 g/Ha; for pest or weed control at 1000 g/ha: Application Rate 1000 g/Ha
Procedure, shortened: as §1

[5] = system: Eleusine indica (ELEIN); settings: Eleusine indica, post-emergence, 312 h, evaluated after 13 days, 100=total damage to plant, 0=no damage to plant, read-out: Control of weed species after post-emergence application, ELEIN; for pest or weed control at 500 g/ha: Application Rate 500 g/Ha; for pest or weed control at 1000 g/ha: Application Rate 1000 g/Ha
Procedure, shortened: as §1

[6] = system: Euphorbia heterophylla (EPHHL); settings: Euphorbia heterophylla, post-emergence, 312 h, evaluated after 13 days, 100=total damage to plant, 0=no damage to plant, read-out: Control of weed species after post-emergence application, EPHHL; for pest or weed control at 500 g/ha: Application Rate 500 g/Ha; for pest or weed control at 1000 g/ha: Application Rate 1000 g/Ha
Procedure, shortened: as §1

[7] = system: Ipomoea hederacea (IPOHE); settings: Ipomoea hederacea, post-emergence, 312 h, evaluated after 13 days, 100=total damage to plant, 0=no damage to plant, read-out: Control of weed species after post-emergence application, IPOHE; for pest or weed control at 500 g/ha: Application Rate 500 g/Ha; for pest or weed control at 1000 g/ha: Application Rate 1000 g/Ha
Procedure, shortened: as §1

[8] = system: Lolium perenne (LOLPE); settings: Lolium perenne, post-emergence, 312 h, evaluated after 13 days, 100=total damage to plant, 0=no damage to plant, read-out: Control of weed species after post-emergence application, LOLPE; for pest or weed control at 500 g/ha: Application Rate 500 g/Ha; for pest or weed control at 1000 g/ha: Application Rate 1000 g/Ha
Procedure, shortened: as §1

[9] = system: Setaria faberi (SETFA); settings: Setaria faberi, post-emergence, 312 h, evaluated after 13 days, 100=total damage to plant, 0=no damage to plant, read-out: Control of weed species after post-emergence application, SETFA; for pest or weed control at 500 g/ha: Application Rate 500 g/Ha; for pest or weed control at 1000 g/ha: Application Rate 1000 g/Ha
Procedure, shortened: as §1

SMILES: COC(=O)CC[n+]1cc(C(=O)[N-]S(=O)(=O)C2CC2)c2ccccc2n1 [Compound A19, cyclopropylsulfonyl-[2-(3-methoxy-3-oxo-propyl)cinnolin-2-ium-4-carbonyl]azanide]
- pest or weed control at 500 g/ha [1]: 30%
- pest or weed control at 500 g/ha [2]: 60%
- pest or weed control at 500 g/ha [3]: 40%
- pest or weed control at 500 g/ha [4]: 60%
- pest or weed control at 500 g/ha [5]: 50%
- pest or weed control at 500 g/ha [6]: 40%
- pest or weed control at 500 g/ha [7]: 30%
- pest or weed control at 500 g/ha [8]: 20%
- pest or weed control at 500 g/ha [9]: 0%

SMILES: C[n+]1cc(OCC(=O)O)c2ccccc2n1 [Compound A58]
- pest or weed control at 1000 g/ha [1]: 80%
- pest or weed control at 1000 g/ha [2]: 70%
- pest or weed control at 1000 g/ha [3]: 70%
- pest or weed control at 1000 g/ha [4]: 10%
- pest or weed control at 1000 g/ha [5]: 30%
- pest or weed control at 1000 g/ha [6]: 20%
- pest or weed control at 1000 g/ha [7]: 20%
- pest or weed control at 1000 g/ha [8]: 0%
- pest or weed control at 1000 g/ha [9]: 60%

SMILES: C[n+]1cc(C(=O)[N-]S(=O)(=O)c2ccc(Cl)s2)c2ccccc2n1 [Compound A39]
- pest or weed control at 1000 g/ha [1]: 80%
- pest or weed control at 1000 g/ha [2]: 30%
- pest or weed control at 1000 g/ha [3]: 10%
- pest or weed control at 1000 g/ha [4]: 20%
- pest or weed control at 1000 g/ha [5]: 10%
- pest or weed control at 1000 g/ha [6]: 20%
- pest or weed control at 1000 g/ha [7]: 30%
- pest or weed control at 1000 g/ha [8]: 0%
- pest or weed control at 1000 g/ha [9]: 30%

SMILES: CCOP(=O)([O-])c1c[n+](C(C)(C)C)nc2ccccc12 [Compound A75, (2-tert-butylcinnolin-2-ium-4-yl)-ethoxy-phosphinate]
- pest or weed control at 500 g/ha [1]: 50%
- pest or weed control at 500 g/ha [2]: 50%
- pest or weed control at 500 g/ha [3]: 30%
- pest or weed control at 500 g/ha [4]: 70%
- pest or weed control at 500 g/ha [5]: 70%
- pest or weed control at 500 g/ha [6]: 30%
- pest or weed control at 500 g/ha [7]: 30%
- pest or weed control at 500 g/ha [8]: 30%
- pest or weed control at 500 g/ha [9]: 30%

SMILES: COC(=O)c1c[n+](C)nc2ccccc12 [Compound A2]
- pest or weed control at 1000 g/ha [1]: 100%
- pest or weed control at 1000 g/ha [2]: 70%
- pest or weed control at 1000 g/ha [3]: 60%
- pest or weed control at 1000 g/ha [4]: 30%
- pest or weed control at 1000 g/ha [5]: 70%
- pest or weed control at 1000 g/ha [6]: 70%
- pest or weed control at 1000 g/ha [7]: 70%
- pest or weed control at 1000 g/ha [8]: 30%
- pest or weed control at 1000 g/ha [9]: 60%

SMILES: COP(=O)(OC)c1c[n+](CCOS(=O)(=O)[O-])nc2ccccc12 [Compound A70]
- pest or weed control at 1000 g/ha [1]: 50%
- pest or weed control at 1000 g/ha [2]: 60%
- pest or weed control at 1000 g/ha [3]: 70%
- pest or weed control at 1000 g/ha [4]: 70%
- pest or weed control at 1000 g/ha [5]: 80%
- pest or weed control at 1000 g/ha [6]: 60%
- pest or weed control at 1000 g/ha [7]: 30%
- pest or weed control at 1000 g/ha [8]: 10%
- pest or weed control at 1000 g/ha [9]: 20%

SMILES: C[n+]1cc(C(=O)O)c2ccccc2n1 [Compound A29]
- pest or weed control at 1000 g/ha [1]: 90%
- pest or weed control at 1000 g/ha [2]: 90%
- pest or weed control at 1000 g/ha [3]: 30%
- pest or weed control at 1000 g/ha [4]: 40%
- pest or weed control at 1000 g/ha [5]: 20%
- pest or weed control at 1000 g/ha [6]: 80%
- pest or weed control at 1000 g/ha [7]: 80%
- pest or weed control at 1000 g/ha [8]: 40%
- pest or weed control at 1000 g/ha [9]: 50%

SMILES: Cn1nnnc1[N-]C(=O)c1c[n+](C)nc2ccccc12 [Compound A16]
- pest or weed control at 1000 g/ha [1]: 50%
- pest or weed control at 1000 g/ha [2]: 60%
- pest or weed control at 1000 g/ha [3]: 0%
- pest or weed control at 1000 g/ha [4]: 20%
- pest or weed control at 1000 g/ha [5]: 0%
- pest or weed control at 1000 g/ha [6]: 30%
- pest or weed control at 1000 g/ha [7]: 40%
- pest or weed control at 1000 g/ha [8]: 10%
- pest or weed control at 1000 g/ha [9]: 10%

— patent US20220132847A1, “CINNOLINIUM COMPOUNDS FOR USE IN A METHOD OF CONTROLLING UNWANTED PLANT GROWTH” (SYNGENTA CROP PROTECTION AG, priority 2019, published 2022)
